Source: ChEMBL document CHEMBL1201862, “PubChem BioAssay data set” (2004)
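How tested: cells in 96-well plates exposed to compound for 48 hours at five concentrations. GI50: concentration for 50% inhibition of growth.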 The source made the active and inactive calls. Cut-off read from the data, not from the text of the source: active = GI50 up to about 1.1 µM and inactive = higher.

Legend:
Assay in all cases: inhibition of tumour cell growth, NCI panel, 48 h
OVCAR-5 = tested on: OVCAR-5
K562 = tested on: K562
OVCAR-4 = tested on: OVCAR-4
NCI/ADR-RES = tested on: NCI/ADR-RES
HCT-116 = tested on: HCT-116
UO-31 = tested on: UO-31
SK-MEL-28 = tested on: SK-MEL-28
T47D = tested on: T47D
SK-MEL-2 = tested on: SK-MEL-2
Malme-3M = tested on: Malme-3M
M14 = tested on: M14
LOX IMVI = tested on: LOX IMVI
SF-539 = tested on: SF-539
HCT-15 = tested on: HCT-15
A498 = tested on: A498
HOP-62 = tested on: HOP-62
TK-10 = tested on: TK-10
CCRF-CEM = tested on: CCRF-CEM
UACC-62 = tested on: UACC-62
MDA-N = tested on: MDA-N

| Structure (SMILES) | GI50 (OVCAR-5) | GI50 (K562) | GI50 (OVCAR-4) | GI50 (NCI/ADR-RES) | GI50 (HCT-116) | GI50 (UO-31) | GI50 (SK-MEL-28) | GI50 (T47D) | GI50 (SK-MEL-2) | GI50 (Malme-3M) | GI50 (M14) | GI50 (LOX IMVI) | GI50 (SF-539) | GI50 (HCT-15) [µM] | GI50 (A498) | GI50 (HOP-62) | GI50 (TK-10) | GI50 (CCRF-CEM) | GI50 (UACC-62) | GI50 (MDA-N) |
| --- | --- | --- | --- | --- | --- | --- | --- | --- | --- | --- | --- | --- | --- | --- | --- | --- | --- | --- | --- | --- |
| COc1ccc(Nc2c(C#N)c3n(c4ccccc24)c2ccccc2[n+]3C)cc1OC | 2.25 µM (inactive) | 2.33 µM (inactive) | 4.68 µM (inactive) | 2.71 µM (inactive) | 1.61 µM (inactive) | 1.3 µM (inactive) | 4.43 µM (inactive) | 6.05 µM (inactive) | 3.86 µM (inactive) | 3.82 µM (inactive) | 2.94 µM (inactive) | 1.9 µM (inactive) | 1.84 µM (inactive) | 1.88 | 4.31 µM (inactive) | 3.24 µM (inactive) | 2.56 µM (inactive) | > 100 µM (inactive) | 3.15 µM (inactive) | 2.7 µM (inactive) |
| CC1(C)CC2(C)ON=C(c3ccccc3)N2c2ccccc2N1 (centres undefined) | 46.9 µM (inactive) | 19.8 µM (inactive) | 39.8 µM (inactive) | 23.4 µM (inactive) | 14.8 µM (inactive) | 18.2 µM (inactive) | 23 µM (inactive) | 21.9 µM (inactive) | 20.9 µM (inactive) | 20.5 µM (inactive) | 19.6 µM (inactive) | 17.3 µM (inactive) | 19.5 µM (inactive) | 29.6 | 28.6 µM (inactive) | 17.7 µM (inactive) | 39.4 µM (inactive) | 32.7 µM (inactive) | 14.1 µM (inactive) | 21.2 µM (inactive) |
| CC(C)=NC(C(=O)O)C(C)(C)S (centres undefined) | > 100 µM (inactive) | > 100 µM (inactive) | > 100 µM (inactive) | > 100 µM (inactive) | > 100 µM (inactive) | > 100 µM (inactive) | > 100 µM (inactive) | > 100 µM (inactive) | > 100 µM (inactive) | > 100 µM (inactive) | > 100 µM (inactive) | > 100 µM (inactive) | > 100 µM (inactive) | > 100 | > 100 µM (inactive) | > 100 µM (inactive) | > 100 µM (inactive) | > 100 µM (inactive) | > 100 µM (inactive) | > 100 µM (inactive) |
| CCCCCCCCCC[S+]([O-])CC(CO)NC(=O)/C=C/c1c(C)nc(O)nc1O (centres undefined) | 1.71 µM (inactive) | 0.501 µM (active) | 0.199 µM (active) | 4.43 µM (inactive) | – | 1.28 µM (inactive) | 1.21 µM (inactive) | 20.8 µM (inactive) | 0.721 µM (active) | 0.47 µM (active) | 11 µM (inactive) | 0.877 µM (active) | 0.484 µM (active) | 1.28 | 1.09 µM (active) | 1.06 µM (active) | 1.76 µM (inactive) | 0.136 µM (active) | 0.628 µM (active) | 25.1 µM (inactive) |
| O=N/N=c1\o[n-][n+](CCc2ccccc2)c1Cc1/c(=N/N=O)o[n-][n+]1CCc1ccccc1 | > 100 µM (inactive) | 25.2 µM (inactive) | 16.8 µM (inactive) | > 100 µM (inactive) | 50.1 µM (inactive) | > 100 µM (inactive) | 55.6 µM (inactive) | 27.9 µM (inactive) | 29.6 µM (inactive) | 24.2 µM (inactive) | 89.5 µM (inactive) | 91.4 µM (inactive) | 20.7 µM (inactive) | > 100 | 46.8 µM (inactive) | 23.2 µM (inactive) | 25.2 µM (inactive) | > 100 µM (inactive) | 51.2 µM (inactive) | 80.9 µM (inactive) |
| COC(=O)[C@](C)(Cc1ccccc1)NC(=O)[C@@H](C)N1[C@@H](c2ccccc2)COC1(C)C | > 100 µM (inactive) | 48.1 µM (inactive) | 39.6 µM (inactive) | 24.9 µM (inactive) | 38.5 µM (inactive) | 30.6 µM (inactive) | > 100 µM (inactive) | 46.5 µM (inactive) | > 100 µM (inactive) | 44.6 µM (inactive) | 63.7 µM (inactive) | 77.6 µM (inactive) | > 100 µM (inactive) | 37.7 | 99.8 µM (inactive) | > 100 µM (inactive) | > 100 µM (inactive) | 89.7 µM (inactive) | 63.5 µM (inactive) | 44.2 µM (inactive) |
| N#Cc1c(NC(=S)NCc2ccccc2)sc2c1CCN(N1CCc3c(sc(NC(=S)NCc4ccccc4)c3C#N)C1)C2 | > 100 µM (inactive) | > 100 µM (inactive) | > 100 µM (inactive) | > 100 µM (inactive) | > 100 µM (inactive) | > 100 µM (inactive) | > 100 µM (inactive) | > 100 µM (inactive) | > 100 µM (inactive) | > 100 µM (inactive) | > 100 µM (inactive) | > 100 µM (inactive) | > 100 µM (inactive) | > 100 | > 100 µM (inactive) | > 100 µM (inactive) | > 100 µM (inactive) | > 100 µM (inactive) | > 100 µM (inactive) | > 100 µM (inactive) |
